The text below walks through data of patent US20070134709A1, “Usages of MTHFR gene polymorphisms in predicting homocysteine level, disease risk, and treatment effects and related methods and kit” (priority 2005, published 2007).

The test system of data set [1] is hypertensive patients. Conditions: oral, single daily fixed dosage of 10 mg; 444 hypertensive patients; cited from earlier work.
Data set [2] concerns hypertensive subjects. Briefly: Change in plasma Hcy level after 57 days' treatment, hypertensive subjects grouped by MTHFR C677T genotype. Type of data set: in vivo, human. The note with it: for Significant change in Hcy (number of subjects): (day 57 − day 0)/day 0 ≧10%; for Non-significant change in Hcy (number of subjects): relative change below 10; for β(SE) of change in Hcy level: multiple linear regression adjusted for sex, age, BMI, smoking, drinking, baseline Hcy; for Mean change in Hcy level: plasma, Day 57 − Day 0. How it is done:
We conducted a clinical epidemiology study, in which we classified hypertensive subjects into 677CC, 677CT, and 677TT groups based on the genotypes of MTHFR C677T polymorphism. Each subject was treated with Enalapril alone or combined with folate for 57 consecutive days. Pre-treatment and post-treatment plasma Hcy level, blood pressure (SBP/DBP), and urine albumin were measured. The major findings are summarized as follow. […]

The conditions of data set [3]: cited from earlier work.
Data set [4] concerns subjects. Briefly: Liver injury as change in liver enzymes (ALT, AST) after 57 days' treatment, subjects grouped by MTHFR C677T genotype. Conditions: for Significant change in ALT (number of subjects): (ALT day 57-ALT day 0)/ALT day 0>15%. Format: in vivo, human. How it is done:
In our clinical epidemiology study, we classified subjects into 677CC, 677CT, and 677TT groups based on the MTHFR C677T genotype. Each subject was treated with ENAZEPRIL alone or combined with folate for 57 consecutive days. Pre-treatment and post-treatment liver enzymes (ALT and AST) were measured. The MTHFR C677T polymorphism can affect the degree of liver injury induced by ACEI medicine combined with folate. […] Remarkably, given the combination therapy, Subjects with MTHFR 677CC genotype tend to have greater increase in ALT and AST, but subjects with MTHFR 677TT genotype tend to have less increase in ALT and AST. Subjects with MTHFR 677CT genotype fell in-between.
In our clinical epidemiology study, we classified subjects into 677CC, 677CT, and 677TT groups based on the MTHFR C677T genotype. Each subject was treated with ENAZEPRIL alone or combined with folate for 57 consecutive days. Pre-treatment and post-treatment liver enzymes (ALT and AST) were measured.

The test system of data set [5] is hypertensive patients. Briefly: Change in plasma Hcy level after 57 days' treatment, hypertensive patients grouped by MTHFR A1298C genotype. Format: in vivo, human. Conditions: for β(SE) of change in Hcy level: adjusted for sex, age, BMI, smoking, drinking, baseline Hcy; for Mean change in Hcy level: plasma, Day 57 − Day 0. The method, then:
In our clinical epidemiology study, we classified hypertensive patients into 1298AA, 1298AC, and 1298CC groups based on the genotype of MTHFR A1298C polymorphism. Each subject was treated with ACEI medicine alone or combined with folate for 57 consecutive days. Pre-treatment and post-treatment plasma Hcy level, blood pressure (SBP/DBP), and urine albumin were measured.

The target in data set [6] is angiotensin converting enzyme I (Homo sapiens, UniProt P12821). The note with it: cited from earlier work.
Where [7] appears, read: Table 19, 677CC, day 57 minus day 0.
The mark [8] stands for this setting: Table 19, 677CT, day 57 minus day 0.
Where [9] appears, read: Table 19, 677TT, day 57 minus day 0.

Sequence of angiotensin converting enzyme I (P12821 30-1306): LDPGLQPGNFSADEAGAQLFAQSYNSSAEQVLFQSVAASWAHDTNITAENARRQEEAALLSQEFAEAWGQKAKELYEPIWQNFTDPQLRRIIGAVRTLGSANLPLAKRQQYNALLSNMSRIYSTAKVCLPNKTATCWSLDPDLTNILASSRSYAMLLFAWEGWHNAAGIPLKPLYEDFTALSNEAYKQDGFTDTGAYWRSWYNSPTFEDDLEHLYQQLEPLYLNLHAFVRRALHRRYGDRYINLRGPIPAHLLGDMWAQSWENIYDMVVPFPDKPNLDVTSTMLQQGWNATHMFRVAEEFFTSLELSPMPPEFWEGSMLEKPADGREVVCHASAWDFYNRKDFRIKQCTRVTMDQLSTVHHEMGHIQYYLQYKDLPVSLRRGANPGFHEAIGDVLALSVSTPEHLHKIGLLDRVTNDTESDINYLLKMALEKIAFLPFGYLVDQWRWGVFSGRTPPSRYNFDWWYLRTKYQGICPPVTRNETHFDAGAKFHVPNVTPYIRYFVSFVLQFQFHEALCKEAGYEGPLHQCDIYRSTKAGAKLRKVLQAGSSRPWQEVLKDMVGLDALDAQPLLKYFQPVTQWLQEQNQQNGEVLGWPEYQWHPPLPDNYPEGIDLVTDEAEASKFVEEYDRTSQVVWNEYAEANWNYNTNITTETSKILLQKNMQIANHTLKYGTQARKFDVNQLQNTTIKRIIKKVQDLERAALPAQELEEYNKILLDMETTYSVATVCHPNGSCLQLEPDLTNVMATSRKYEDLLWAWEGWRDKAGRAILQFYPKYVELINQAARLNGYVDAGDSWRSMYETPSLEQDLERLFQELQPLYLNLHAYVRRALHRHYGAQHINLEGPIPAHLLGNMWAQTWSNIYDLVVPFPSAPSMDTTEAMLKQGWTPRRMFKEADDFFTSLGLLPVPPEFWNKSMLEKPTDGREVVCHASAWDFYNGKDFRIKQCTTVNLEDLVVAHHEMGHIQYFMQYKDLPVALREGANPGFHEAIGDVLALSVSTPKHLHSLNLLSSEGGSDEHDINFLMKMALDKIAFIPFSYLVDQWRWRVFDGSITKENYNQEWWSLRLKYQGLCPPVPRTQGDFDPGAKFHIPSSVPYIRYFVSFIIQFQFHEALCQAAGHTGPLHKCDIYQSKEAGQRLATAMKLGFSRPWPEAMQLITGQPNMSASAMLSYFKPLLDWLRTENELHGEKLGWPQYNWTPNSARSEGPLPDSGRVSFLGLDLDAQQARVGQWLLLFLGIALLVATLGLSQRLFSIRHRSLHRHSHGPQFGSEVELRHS

For the compound `CCOC(=O)[C@H](CCc1ccccc1)N[C@H]1CCc2ccccc2N(CC(=O)O)C1=O` [Benazepril], in data set [1], the “Change in diastolic blood pressure, TT genotype vs CT or CC genotype” value is given as “significantly higher”.
On to `CCOC(=O)[C@H](CCc1ccccc1)N[C@@H](C)C(=O)N1CCC[C@H]1C(=O)O` [ENALAPRIL, Enalapril], for which the “Significant change in Hcy (number of subjects)” value in data set [2] (677CC + CT) is 12; in data set [2] (677TT), 10; in data set [2] (Total, all genotypes), 22. The “Non-significant change in Hcy (number of subjects)” value in data set [2] (677CC + CT) is recorded as 39; in data set [2] (677TT), 16; in data set [2] (Total, all genotypes), 55. Besides, the “Subjects with significant change in Hcy level” value in data set [2] (677CT or CC) turned out to be 23.3%; in data set [2] (677TT genotype) it was 38.5%; in data set [2] (overall (22/77)), 28.6%. The “β(SE) of change in Hcy level” value in data set [2] (677CT vs 677CC) is 0.7 (1.3); in data set [2] (677TT vs 677CC) it was 3.9 (1.3). For the same compound, the “Plasma Hcy level after treatment” value in data set [2] (Enalapril alone for 57 days) was “increased level of plasma Hcy”. Moreover, the “Mean change in Hcy level” value is -0.5 µmol/L in data set [2] (MTHFR 677CC), 1.2 µmol/L in data set [2] (MTHFR 677CT) and 2.7 µmol/L in data set [2] (MTHFR 677TT). In addition, the Half-time in data set [3] (in vivo) was 11 h. In addition, the “Duration of blood pressure lowering effect” value in data set [3] (regular dosage) is on record as “more than 24 hours”.
With `CCOC(=O)[C@H](CCc1ccccc1)N[C@@H](C)C(=O)N1CCC[C@H]1C(=O)O` [ENAZEPRIL], the “Insignificant change in ALT (number of subjects)” value in data set [4] (677CC) is listed as 20; in data set [4] (677TT) it was 34; in data set [4] (Total (CC and TT)) it was 54. For the same compound, the “Significant change in ALT (number of subjects)” value in data set [4] (677CC) is reported as 32; in data set [4] (677TT), 14; in data set [4] (Total (CC and TT)), 46. Further, the “Mean change in ALT” value is 13.8 U/L in data set [4] (setting [7]); 10.1 U/L in data set [4] (setting [8]); 7.3 U/L in data set [4] (setting [9]); 17.92 U/L in data set [4] (Table 20, 677CC, Day57 − Day0); 10.15 U/L in data set [4] (Table 20, 677CT, Day57 − Day0); 9.4 U/L in data set [4] (Table 20, 677TT, Day57 − Day0). For the same compound, the “Mean change in AST” value in data set [4] (setting [7]) was 7.1 U/L; in data set [4] (setting [8]), 5.2 U/L; in data set [4] (setting [9]), 0.3 U/L; in data set [4] (Table 20, 677CC, Day57 − Day0) it was 4.95 U/L; in data set [4] (Table 20, 677CT, Day57 − Day0), 5.81 U/L; in data set [4] (Table 20, 677TT, Day57 − Day0) it was 0.08 U/L. The “Increase in ALT and AST” value in data set [4] (subjects with MTHFR 677CC genotype, Enazepril alone) was “greatest increase in ALT and AST”. The “β(SE) of change in Hcy level” value in data set [5] (1298AA vs 1298CC) is on record as 2.3 (1.8); in data set [5] (1298AC vs 1298CC), 0.2 (1.5). The “Plasma Hcy level after treatment” value in data set [5] (ENAZEPRIL alone for 57 days) is given as “significantly increased level of plasma Hcy”. The results for the “Mean change in Hcy level” value in data set [5] (MTHFR 1298AA), in data set [5] (MTHFR 1298AC) and in data set [5] (MTHFR 1298CC) were 3.0 µmol/L, 1.2 µmol/L and 1.1 µmol/L, respectively.
Take `C[C@H](N[C@@H](CCc1ccccc1)C(=O)O)C(=O)N1CCC[C@H]1C(=O)O` [Enalaprilat]: the “Inhibition of angiotensin converting enzyme I compared with enalapril” value in data set [6] is recorded as “powerful effect on inhibiting angiotensin converting enzyme I than enalapril”.
